Series [1] is classed as physicochemical. How it is done:
The most hydrophobic analogs, 5, 6, and 8, presented several difficulties regarding purification. […] Nevertheless, by washing the solid obtained several times with 30% acetonitrile in water, impurities from the cyclization were removed, as were the protecting groups, and the decanoyl derivative was obtained in good purity (Figure S11). The mixture of compounds 5 and 6 was also a challenge with respect to solubilization. In this case, the addition first of 100 μL of TFA and then 7 mL of acetonitrile, followed by sonication for 15 min, yielded a clear solution. Then, 3 mL of water was added slowly and no precipitation of the compounds was observed. This solution was injected into the semi-preparative HPLC, and the two analogs were separated efficiently.
After the purification and characterization of the new analogs by MALDI-TOF, their antimicrobial activity was tested against two gram-positive bacteria strains, Staphylococcus aureus and Bacillo subtilis, as well as two gram-negative strains, namely Escherichia coli and Pseudomonas aeruginosa (Table 1). […] They were then diluted to reach 512 μg/mL, the highest concentration tested, followed by two-fold serial dilution.

Series [2] deals with Bacillus subtilis ATCC 6051. The format is cell-based. The settings on record: ATCC 6051, 24 h. How it is done: (§1) After the purification and characterization of the new analogs by MALDI-TOF, their antimicrobial activity was tested against two gram-positive bacteria strains, Staphylococcus aureus and Bacillo subtilis, as well as two gram-negative strains, namely Escherichia coli and Pseudomonas aeruginosa (Table 1). […] They were then diluted to reach 512 μg/mL, the highest concentration tested, followed by two-fold serial dilution. […] The MIC was determined using the broth micro dilution method, as described by the Clinical and Laboratory Standards Institute (CLSI) guidelines, using two gram-positive and two gram-negative bacteria strains (Staphylococcus aureus ATCC 29213, Bacillus subtilis ATCC 6051, Escherichia coli ATCC 25922, Pseudomonas aeruginosa ATCC 27853). First, the bacterial strains were sub-cultured onto Mueller Hinton agar and incubated at 37 °C for 24 h before use in the experiments. Stock solutions at 6 mg/mL in 10% DMSO were prepared for analogs 1–4 and 60% DMSO for analogs 5, 6, and 8. Second, two-fold serial dilutions of each drug/compound were made in cation-adjusted Mueller Hinton broth (CAMHB) in a 96-well microtiter plate. The bacterial inoculum was prepared in distilled water, matched to a 0.5 McFarland standard, and added to make a final volume of 200 µL in each microliter well. The plates were incubated for 24 h at 37 °C under aerobic conditions. The MIC was then recorded as the lowest concentration at which no visible growth occurred. Standard drug, media, and bacterial growth control wells were included in each plate. […] The assay was performed in triplicate to confirm the results.

Series [3] has as its system Escherichia coli ATCC 25922. It is filed as cell-based. As to conditions: ATCC 25922, 24 h. How it is done: as §1
The test system of series [4] is Staphylococcus aureus ATCC 29213. It is filed as cell-based. As to conditions: ATCC 29213, 24 h. How it is done: as §1
The test system of series [5] is Pseudomonas aeruginosa ATCC 27853. The series is described as follows: MIC, broth microdilution (CLSI). It is filed as cell-based. As to conditions: Gram−, CAMHB, 24 h at 37 °C, two-fold dilutions from 512 µg/mL, triplicate. How it is done: After the purification and characterization of the new analogs by MALDI-TOF, their antimicrobial activity was tested against two gram-positive bacteria strains, Staphylococcus aureus and Bacillo subtilis, as well as two gram-negative strains, namely Escherichia coli and Pseudomonas aeruginosa (Table 1). […] They were then diluted to reach 512 μg/mL, the highest concentration tested, followed by two-fold serial dilution. […] The MIC was determined using the broth micro dilution method, as described by the Clinical and Laboratory Standards Institute (CLSI) guidelines, using two gram-positive and two gram-negative bacteria strains (Staphylococcus aureus ATCC 29213, Bacillus subtilis ATCC 6051, Escherichia coli ATCC 25922, Pseudomonas aeruginosa ATCC 27853). First, the bacterial strains were sub-cultured onto Mueller Hinton agar and incubated at 37 °C for 24 h before use in the experiments. Stock solutions at 6 mg/mL in 10% DMSO were prepared for analogs 1–4 and 60% DMSO for analogs 5, 6, and 8. Second, two-fold serial dilutions of each drug/compound were made in cation-adjusted Mueller Hinton broth (CAMHB) in a 96-well microtiter plate. The bacterial inoculum was prepared in distilled water, matched to a 0.5 McFarland standard, and added to make a final volume of 200 µL in each microliter well. […] The MIC was then recorded as the lowest concentration at which no visible growth occurred. […]

In series [6] the test system is Staphylococcus aureus ATCC 29213. The settings on record: Gram+; natural teixobactin, reference line of Table 1; cited from earlier work. From the text: Table 1 Minimum Inhibitory Concentration (MIC) (µg/mL) for teixobactin analogs (1–6, 8–10). | column: Gram+ / S. aureus ATCC 29213
Series [7] has as its system Bacillus subtilis ATCC 6051. As to conditions: Gram+; natural teixobactin, reference line of Table 1; cited from earlier work. An excerpt: Table 1 Minimum Inhibitory Concentration (MIC) (µg/mL) for teixobactin analogs (1–6, 8–10). | column: Gram+ / B. subtilis ATCC 6051
Series [8] has as its system Escherichia coli ATCC 25922. The settings on record: Gram−; natural teixobactin, reference line of Table 1; cited from earlier work. From the text:
Table 1 Minimum Inhibitory Concentration (MIC) (µg/mL) for teixobactin analogs (1–6, 8–10). | column: Gram− / E. coli ATCC 25922

In series [9] the test system is Pseudomonas aeruginosa ATCC 27853. As to conditions: Gram−; natural teixobactin, reference line of Table 1; cited from earlier work. An excerpt:
Table 1 Minimum Inhibitory Concentration (MIC) (µg/mL) for teixobactin analogs (1–6, 8–10). | column: Gram− / P. aerug ATCC 27853

Read-outs that look alike come from different tables or passages of the source.

As to “N-Dec-D-Phe-Arg10-teixobactin [compound 8]”, in series [1], the “solubility in solvent systems compatible with reverse-phase chromatography” value was “not possible to dissolve” and the solubility in water entry is “poor solubility in water”.

For `CCCCCCCCCCN[C@H](Cc1ccccc1)C(=O)N[C@H](C(=O)N[C@@H](CO)C(=O)N[C@H](CCC(N)=O)C(=O)N[C@@H](C(=O)N[C@H](C(=O)N[C@@H](CO)C(=O)N[C@H]1C(=O)N[C@@H](C)C(=O)N[C@@H](CCCNC(=N)N)C(=O)N[C@@H]([C@@H](C)CC)C(=O)O[C@H]1C)[C@@H](C)CC)[C@@H](C)CC)[C@@H](C)CC` [compound 5, N-De-D-Phe-Arg10-teixobactin], the “Minimum Inhibitory Concentration (MIC) B. subtilis ATCC 6051” value in series [2] turned out to be 128 µg/mL. For the same compound, the solubility in water result in series [1] is listed as “poor solubility in water”.

Regarding `CC[C@H](C)[C@H](NC(=O)[C@H](N)Cc1ccccc1)C(=O)N[C@@H](CO)C(=O)N[C@H](CCC(N)=O)C(=O)N[C@@H](C(=O)N[C@H](C(=O)N[C@@H](CO)C(=O)N[C@H]1C(=O)N[C@@H](C)C(=O)N[C@@H](CCCNC(=N)N)C(=O)N[C@@H]([C@@H](C)CC)C(=O)O[C@H]1C)[C@@H](C)CC)[C@@H](C)CC` [compound 2, D-Phe-Arg10-teixobactin], the “Minimum Inhibitory Concentration (MIC) B. subtilis ATCC 6051” value in [2] is reported as 1 µg/mL. Also, the “Minimum Inhibitory Concentration (MIC) E. coli ATCC 25922” value in series [3] was found to be 32 µg/mL. Moreover, the “Minimum Inhibitory Concentration (MIC) S. aureus ATCC 29213” value in [4] worked out at 2 µg/mL.

As to `CC[C@H](C)[C@H](NC(=O)[C@@H](Cc1ccccc1)NC)C(=O)N[C@@H](CO)C(=O)N[C@H](CCC(N)=O)C(=O)N[C@@H](C(=O)N[C@H](C(=O)N[C@@H](CO)C(=O)N[C@H]1C(=O)N[C@@H](C)C(=O)N[C@@H](CCCNC(=N)N)C(=O)N[C@@H]([C@@H](C)CC)C(=O)O[C@H]1C)[C@@H](C)CC)[C@@H](C)CC` [compound 1, N-Me-D-Phe-Arg10-teixobactin], the “Minimum Inhibitory Concentration (MIC) B. subtilis ATCC 6051” value in [2] was determined as 0.5 µg/mL. The “Minimum Inhibitory Concentration (MIC) E. coli ATCC 25922” value in [3] is recorded as 64 µg/mL. Moreover, in series [4], the “Minimum Inhibitory Concentration (MIC) S. aureus ATCC 29213” value is reported as 2 µg/mL. In addition, the “Minimum Inhibitory Concentration (MIC) P. aerug ATCC 27853” value in [5] is “NI ^1”.

For `CC[C@H](C)[C@H](NC(=O)[C@@H](Cc1ccccc1)N(C)C)C(=O)N[C@@H](CO)C(=O)N[C@H](CCC(N)=O)C(=O)N[C@@H](C(=O)N[C@H](C(=O)N[C@@H](CO)C(=O)N[C@H]1C(=O)N[C@@H](C)C(=O)N[C@@H](CCCNC(=N)N)C(=O)N[C@@H]([C@@H](C)CC)C(=O)O[C@H]1C)[C@@H](C)CC)[C@@H](C)CC` [compound 3, N-Me2-D-Phe-Arg10-teixobactin], the “Minimum Inhibitory Concentration (MIC) B. subtilis ATCC 6051” value in [2] was 2 µg/mL. Further, the “Minimum Inhibitory Concentration (MIC) E. coli ATCC 25922” value in [3] was determined as 128 µg/mL. Moreover, the “Minimum Inhibitory Concentration (MIC) S. aureus ATCC 29213” value in series [4] is 16 µg/mL.

As to `CC[C@H](C)[C@H](NC(=O)[C@@H](Cc1ccccc1)N=C(N(C)C)N(C)C)C(=O)N[C@@H](CO)C(=O)N[C@H](CCC(N)=O)C(=O)N[C@@H](C(=O)N[C@H](C(=O)N[C@@H](CO)C(=O)N[C@H]1C(=O)N[C@@H](C)C(=O)N[C@@H](CCCNC(=N)N)C(=O)N[C@@H]([C@@H](C)CC)C(=O)O[C@H]1C)[C@@H](C)CC)[C@@H](C)CC` [compound 10, N-Tmg-D-Phe-Arg10-teixobactin], the “Minimum Inhibitory Concentration (MIC) B. subtilis ATCC 6051” value in [2] stood at 64 µg/mL. In series [4], the “Minimum Inhibitory Concentration (MIC) S. aureus ATCC 29213” value turned out to be 256 µg/mL.

Turning to Teixobactin, the “Minimum Inhibitory Concentration (MIC) S. aureus ATCC 29213” value in series [6] is recorded as 0.25 µg/mL. Further, in series [7], the “Minimum Inhibitory Concentration (MIC) B. subtilis ATCC 6051” value is listed as 0.06 µg/mL. The “Minimum Inhibitory Concentration (MIC) E. coli ATCC 25922” value in series [8] is listed as 25 µg/mL. For the same compound, the “Minimum Inhibitory Concentration (MIC) P. aerug ATCC 27853” value in series [9] was above 32 µg/mL.

With `CCCCCCCCCCN(CCCCCCCCCC)[C@H](Cc1ccccc1)C(=O)N[C@H](C(=O)N[C@@H](CO)C(=O)N[C@H](CCC(N)=O)C(=O)N[C@@H](C(=O)N[C@H](C(=O)N[C@@H](CO)C(=O)N[C@H]1C(=O)N[C@@H](C)C(=O)N[C@@H](CCCNC(=N)N)C(=O)N[C@@H]([C@@H](C)CC)C(=O)O[C@H]1C)[C@@H](C)CC)[C@@H](C)CC)[C@@H](C)CC` [compound 6, N-De2-D-Phe-Arg10-teixobactin], in [2], the “Minimum Inhibitory Concentration (MIC) B. subtilis ATCC 6051” value came out at 128 µg/mL. For the same compound, in series [1], the solubility in water entry is listed as “poor solubility in water”.

The values above are taken from publication PMC6151525, “Investigation of the N-Terminus Amino Function of Arg10-Teixobactin” (Molecules : A Journal of Synthetic Chemistry and Natural …, 2017).
